Experiment [1] has as its target CDK4/CyclinD1 (Homo sapiens, UniProt P11802). As to the kind of experiment: CDK4/CyclinD1 Flashplate assay, 96-well format, biotinylated-Rb peptide substrate. Type of experiment: biochemical. The gist of the method: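 Biotinylated Rb peptide bound to streptavidin Flashplate; CDK4/CyclinD1 (70 ng/well) preincubated 30 min on ice with compound at 10, 3, 1, 0.3 and 0.1 μM final. Reaction with 1 μM cold ATP plus 33P-ATP for 45 min at RT; incorporated 33P counted, duplicates.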

For experiment [2], the target named is CDK2/CyclinE (Homo sapiens, UniProt P24941). As to the kind of experiment: CDK2/CyclinE Flashplate assay, 96-well format, biotinylated-Rb peptide substrate. Type of experiment: biochemical. In short, it runs like this: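 Biotinylated Rb peptide was captured on streptavidin Flashplates, and CDK2/CyclinE (200 ng/well) was preincubated 30 min on ice with inhibitor at 10, 3, 1, 0.3 or 0.1 μM final. Reactions ran 45 min at RT with 1 μM ATP plus 1 μCi ^33P-ATP. After washing, incorporated ^33P was counted, in duplicate.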

The results in this text go back to US20050014811A1, “Substituted benzimidazole compounds and their use for the treatment of cancer” (Aventis Pharma S.A., priority 2001, published 2005).

Chain of CDK4/CyclinD1 (P11802 whole entry, species assumed): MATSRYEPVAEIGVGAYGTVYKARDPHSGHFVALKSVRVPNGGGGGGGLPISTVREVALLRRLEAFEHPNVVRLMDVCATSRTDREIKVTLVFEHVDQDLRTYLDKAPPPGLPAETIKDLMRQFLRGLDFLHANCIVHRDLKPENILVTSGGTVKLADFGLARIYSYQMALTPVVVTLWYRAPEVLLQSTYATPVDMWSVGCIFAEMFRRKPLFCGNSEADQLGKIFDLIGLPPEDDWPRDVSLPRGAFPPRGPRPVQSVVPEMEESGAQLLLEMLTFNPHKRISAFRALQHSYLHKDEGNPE
Chain of CDK4/CyclinD1 (P24385 whole entry partner, species assumed): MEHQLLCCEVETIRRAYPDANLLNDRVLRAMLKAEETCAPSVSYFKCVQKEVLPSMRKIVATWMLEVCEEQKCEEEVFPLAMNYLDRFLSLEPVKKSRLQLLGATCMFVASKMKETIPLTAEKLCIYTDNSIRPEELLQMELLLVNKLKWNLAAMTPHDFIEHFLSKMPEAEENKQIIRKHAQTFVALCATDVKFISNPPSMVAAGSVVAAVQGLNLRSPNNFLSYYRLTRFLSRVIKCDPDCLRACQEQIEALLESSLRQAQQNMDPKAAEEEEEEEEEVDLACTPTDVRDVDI

For the molecule `O=C(NCCCN1CCCC1=O)Nc1nc2cc(OS(=O)(=O)c3ccc(NC4CCCC4)cc3)ccc2[nH]1` [Example 58-ac, 4-Cyclopentylamino-benzenesulfonic acid 2-{3-[3-(2-oxo-pyrrolidin-1-yl)-propyl]-ureido}-1H-benzoimidazol-5-yl ester], the results for the IC50 in experiment [1] and in experiment [2] were 170 nM and 13 nM, respectively.

Consider `NC(=O)CCNC(=O)Nc1nc2cc(OS(=O)(=O)c3ccc(NC4CCCC4)cc3)ccc2[nH]1` [Example 58-ad, 4-Cyclopentylamino-benzenesulfonic acid 2-[3-(2-carbamoyl-ethyl)-ureido]-1H-benzoimidazol-5-yl ester], for which the IC50 in experiment [1] turned out to be 130 nM; in experiment [2] it was 16 nM.

For `O=C(NCCOCCO)Nc1nc2cc(OS(=O)(=O)c3ccc(NC4CCCC4)cc3)ccc2[nH]1` [Example 58-af, 4-Cyclopentylamino-benzenesulfonic acid 2-{3-[2-(2-hydroxy-ethoxy)-ethyl]-ureido}-1H-benzoimidazol-5-yl ester], the results for the IC50 in experiment [1] and in experiment [2] were 210 nM and 180 nM, respectively.

In the case of `O=C(NCCCN1CCCC1)Nc1nc2cc(OS(=O)(=O)c3ccc(NC4CCCC4)cc3)ccc2[nH]1` [Example 58-ag, 4-Cyclopentylamino-benzenesulfonic acid 2-[3-(3-pyrrolidin-1-yl-propyl)-ureido]-1H-benzoimidazol-5-yl ester], the IC50 in experiment [1] stood at 390 nM; in experiment [2], 40 nM.

Consider `CCN1CCCC1CNC(=O)Nc1nc2cc(OS(=O)(=O)c3ccc(NC4CCCC4)cc3)ccc2[nH]1` (stereo not drawn) [Example 58-ah, 4-Cyclopentylamino-benzenesulfonic acid 2-[3-(1-ethyl-pyrrolidin-2-ylmethyl)-ureido]-1H-benzoimidazol-5-yl ester], for which the IC50 in experiment [1] is 330 nM; in experiment [2] it was 30 nM.

Consider `O=C(NCCN1CCCC1)Nc1nc2cc(OS(=O)(=O)c3ccc(NC4CCCC4)cc3)ccc2[nH]1` [Example 58-ai, 4-Cyclopentylamino-benzenesulfonic acid 2-[3-(2-pyrrolidin-1-yl-ethyl)-ureido]-1H-benzoimidazol-5-yl ester], for which the IC50 in experiment [1] is 330 nM; in experiment [2], 150 nM.

For `O=C(NCCN1CCCCC1)Nc1nc2cc(OS(=O)(=O)c3ccc(NC4CCCC4)cc3)ccc2[nH]1` [Example 58-aj, 4-Cyclopentylamino-benzenesulfonic acid 2-[3-(2-piperidin-1-yl-ethyl)-ureido]-1H-benzoimidazol-5-yl ester], the IC50 in experiment [1] was 380 nM; in experiment [2], 370 nM.

As to `CC(CO)NC(=O)Nc1nc2cc(OS(=O)(=O)c3ccc(NC4CCCC4)cc3)ccc2[nH]1` (stereo not drawn) [Example 58-ak, 4-Cyclopentylamino-benzenesulfonic acid 2-[3-(2-hydroxy-1-methyl-ethyl)-ureido]-1H-benzoimidazol-5-yl ester], the figures for the concentration for half-maximal inhibition (IC50) in experiment [1] and in experiment [2] were 180 nM and 100 nM, respectively.

Regarding `CC(C)NCCNC(=O)Nc1nc2cc(OS(=O)(=O)c3ccc(NC4CCCC4)cc3)ccc2[nH]1` [Example 58-al, 4-Cyclopentylamino-benzenesulfonic acid 2-[3-(2-isopropylamino-ethyl)-ureido]-1H-benzoimidazol-5-yl ester], the IC50 amounted to 250 nM in experiment [1] and 150 nM in experiment [2].

Consider `CCN(CC)CCNC(=O)Nc1nc2cc(OS(=O)(=O)c3ccc(NC4CCCC4)cc3)ccc2[nH]1` [Example 58-am, 4-Cyclopentylamino-benzenesulfonic acid 2-[3-(2-diethylamino-ethyl)-ureido]-1H-benzoimidazol-5-yl ester], for which the IC50 in experiment [1] turned out to be 240 nM; in experiment [2], 80 nM.

In the case of `COC(=O)[C@H](CO)NC(=O)Nc1nc2cc(OS(=O)(=O)c3ccc(NC4CCCC4)cc3)ccc2[nH]1` [Example 58-an, 2-{3-[5-(4-Cyclopentylamino-benzenesulfonyloxy)-1H-benzoimidazol-2-yl]-ureido}-3S-hydroxy-propionic acid methyl ester], the IC50 turned out to be 200 nM in experiment [1] and 100 nM in experiment [2].

Turning to `O=C(Nc1nc2cc(OS(=O)(=O)c3ccc(NC4CCCC4)cc3)ccc2[nH]1)NC1CCCCC1` [Example 58-b, 4-Cyclopentylamino-benzenesulfonic acid 2-(3-cyclohexyl-ureido)-1H-benzoimidazol-5-yl ester], in experiment [1], the inhibition at 10 µM is 70%. 900 nM corresponded to half-maximal inhibition in experiment [2] (IC50).

Turning to `O=C(Nc1nc2cc(OS(=O)(=O)c3ccc(NC4CCCC4)cc3)ccc2[nH]1)NC1CCCC1` [Example 58-c, 4-Cyclopentylamino-benzenesulfonic acid 2-(3-cyclopentyl-ureido)-1H-benzoimidazol-5-yl ester], the inhibition at 10 µM in experiment [1] is 60%. The same molecule yielded a half-maximal inhibitory concentration (IC50) in experiment [2] of 600 nM.

Take `O=C(Nc1cccc(F)c1)Nc1nc2cc(OS(=O)(=O)c3ccc(NC4CCCC4)cc3)ccc2[nH]1` [Example 58-d, 4-Cyclopentylamino-benzenesulfonic acid 2-[3-(3-fluoro-phenyl)-ureido]-1H-benzoimidazol-5-yl ester]: the inhibition at 10 µM in experiment [1] stood at 84%. The IC50 in experiment [2] was 1600 nM.

For `O=C(NCCO)Nc1nc2cc(OS(=O)(=O)c3ccc(NC4CCCC4)cc3)ccc2[nH]1` [Example 58-e, 4-Cyclopentylamino-benzenesulfonic acid 2-[3-(2-hydroxy-ethyl)-ureido]-1H-benzoimidazol-5-yl ester], the IC50 was 100 nM in experiment [1] and 40 nM in experiment [2].

`O=C(Nc1ccc(F)cc1)Nc1nc2cc(OS(=O)(=O)c3ccc(NC4CCCC4)cc3)ccc2[nH]1` [Example 58-f, 4-Cyclopentylamino-benzenesulfonic acid 2-[3-(4-fluoro-phenyl)-ureido]-1H-benzoimidazol-5-yl ester] registered an inhibition at 10 µM in experiment [1] of 91%. Further, the IC50 in experiment [2] was 700 nM.

In experiment [1], `O=C(NCc1ccccc1Cl)Nc1nc2cc(OS(=O)(=O)c3ccc(NC4CCCC4)cc3)ccc2[nH]1` [Example 58-g, 4-Cyclopentylamino-benzenesulfonic acid 2-[3-(2-chloro-benzyl)-ureido]-1H-benzoimidazol-5-yl ester] displayed an inhibition at 10 µM of 69%. The molecule also returned an IC50 in experiment [2] of 1000 nM.

In experiment [1], `O=C(Nc1nc2cc(OS(=O)(=O)c3ccc(NC4CCCC4)cc3)ccc2[nH]1)N1CCC1` [Example 58-i, 4-Cyclopentylamino-benzenesulfonic acid 2-[(azetidine-1-carbonyl)-amino]-1H-benzoimidazol-5-yl ester] came in with an inhibition at 10 µM of 81%. Moreover, in experiment [2], the IC50 was determined as 300 nM.

On to `O=C(NCc1cccnc1)Nc1nc2cc(OS(=O)(=O)c3ccc(NC4CCCC4)cc3)ccc2[nH]1` [Example 58-j, 4-Cyclopentylamino-benzenesulfonic acid 2-(3-pyridin-3-ylmethyl-ureido)-1H-benzoimidazol-5-yl ester], for which the IC50 in experiment [1] was 500 nM; in experiment [2], 9 nM.

On to `CN1CCN(CCCNC(=O)Nc2nc3cc(OS(=O)(=O)c4ccc(NC5CCCC5)cc4)ccc3[nH]2)CC1` [Example 58-k, 4-Cyclopentylamino-benzenesulfonic acid 2-{3-[3-(4-methyl-piperazin-1-yl)-propyl]-ureido}-1H-benzoimidazol-5-yl ester], for which the IC50 in experiment [1] was 500 nM; in experiment [2] it was 40 nM.

Regarding `O=C(NCc1ccccc1)Nc1nc2cc(OS(=O)(=O)c3ccc(NC4CCCC4)cc3)ccc2[nH]1` [Example 58-l, 4-Cyclopentylamino-benzenesulfonic acid 2-(3-benzyl-ureido)-1H-benzoimidazol-5-yl ester], the IC50 in experiment [1] came out at 1000 nM; in experiment [2], 30 nM.
